PMC10299909, “Structural basis of efficacy-driven ligand selectivity at GPCRs” (Nature Chemical Biology, 2023)
Positions count from the first letter of the chain named. Where “and” joins values, the source holds several entries; their conditions need not be identical. Equal values may be shown once. Read-outs that look alike come from different tables or passages of the source. Values belong to the compound of their own block, whether it stands above or below them.

Experiments:
M4 mAChR [1] = target: T1, M4 mAChR (Homo sapiens, UniProt P08173); assay: whole-cell [3H]NMS radioligand competition binding, CHO FlpIn cells; details: M4; first set of experiments (top 5 rows); read-out: pKI (radioligand binding competition with [3H]NMS) (converted)
T1 construct: expressed in transfected cells; host or cells: CHO FlpIn
T1 sequence (P08173 1-479): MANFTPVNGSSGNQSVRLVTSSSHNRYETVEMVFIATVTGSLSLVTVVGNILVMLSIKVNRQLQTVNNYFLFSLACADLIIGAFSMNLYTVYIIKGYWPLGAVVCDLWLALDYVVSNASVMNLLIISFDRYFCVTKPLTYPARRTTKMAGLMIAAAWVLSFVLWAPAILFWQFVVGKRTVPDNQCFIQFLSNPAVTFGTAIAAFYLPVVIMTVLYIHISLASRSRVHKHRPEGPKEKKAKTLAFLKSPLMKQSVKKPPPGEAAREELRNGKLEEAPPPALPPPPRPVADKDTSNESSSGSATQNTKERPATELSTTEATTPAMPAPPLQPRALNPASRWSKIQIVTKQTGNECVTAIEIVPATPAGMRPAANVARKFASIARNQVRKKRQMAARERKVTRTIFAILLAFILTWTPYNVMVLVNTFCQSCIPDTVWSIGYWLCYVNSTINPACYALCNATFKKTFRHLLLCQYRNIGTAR

M3 mAChR [2] = target: T2, M3 mAChR (Homo sapiens, UniProt P20309); assay: as above; details: first set of experiments, read-out: pKI (radioligand binding competition with [3H]NMS) (converted)
T2 construct: expressed in transfected cells; host or cells: CHO FlpIn

M2 mAChR [3] = target: T3, M2 mAChR (Homo sapiens, UniProt P08172); assay: cell-based
T3 sequence (P08172 1-466): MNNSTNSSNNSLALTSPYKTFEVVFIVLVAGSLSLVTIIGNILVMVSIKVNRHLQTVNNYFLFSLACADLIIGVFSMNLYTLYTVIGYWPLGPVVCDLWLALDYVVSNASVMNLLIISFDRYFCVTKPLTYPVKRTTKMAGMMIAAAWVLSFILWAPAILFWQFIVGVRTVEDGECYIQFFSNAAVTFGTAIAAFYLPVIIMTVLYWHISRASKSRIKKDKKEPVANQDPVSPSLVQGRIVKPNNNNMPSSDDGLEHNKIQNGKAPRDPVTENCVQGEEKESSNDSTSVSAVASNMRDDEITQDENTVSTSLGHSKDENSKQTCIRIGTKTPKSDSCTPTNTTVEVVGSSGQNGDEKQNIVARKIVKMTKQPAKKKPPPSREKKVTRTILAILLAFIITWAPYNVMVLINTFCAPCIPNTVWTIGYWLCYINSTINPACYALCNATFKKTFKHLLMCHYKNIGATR

M5 mAChR [4] = target: T4, M5 mAChR (Homo sapiens, UniProt P08912); assay: whole-cell [3H]NMS radioligand competition binding, CHO FlpIn cells; details: first set of experiments, read-out: pKI (radioligand binding competition with [3H]NMS) (converted)
T4 construct: expressed in transfected cells; host or cells: CHO FlpIn
T4 sequence (P08912 1-532): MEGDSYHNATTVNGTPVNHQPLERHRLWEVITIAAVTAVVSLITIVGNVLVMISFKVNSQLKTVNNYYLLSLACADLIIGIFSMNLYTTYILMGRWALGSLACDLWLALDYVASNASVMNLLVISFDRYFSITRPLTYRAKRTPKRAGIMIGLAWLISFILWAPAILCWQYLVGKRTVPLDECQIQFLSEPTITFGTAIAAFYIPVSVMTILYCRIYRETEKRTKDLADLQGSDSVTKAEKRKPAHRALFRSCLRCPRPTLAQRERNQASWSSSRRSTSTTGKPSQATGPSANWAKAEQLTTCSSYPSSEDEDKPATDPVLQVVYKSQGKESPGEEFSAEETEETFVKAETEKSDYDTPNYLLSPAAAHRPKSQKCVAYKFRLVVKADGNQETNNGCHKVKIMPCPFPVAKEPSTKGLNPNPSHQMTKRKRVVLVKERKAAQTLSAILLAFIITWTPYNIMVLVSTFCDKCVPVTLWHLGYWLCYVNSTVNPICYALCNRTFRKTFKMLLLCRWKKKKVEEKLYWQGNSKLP

M1 mAChR = M1 mAChR (Homo sapiens, UniProt P11229); assay: cell-based
M5 mAChR [5] = target: T4, M5 mAChR; assay: pERK1/pERK2 signaling assay (AlphaScreen SureFire), CHO FlpIn cells; type: cell-based; details: first set of experiments
M3 mAChR [6] = target: T2, M3 mAChR; assay: as above; type: cell-based; details: M3; first set of experiments
M2 mAChR [7] = target: M2 mAChR (Homo sapiens, UniProt P08172)
M4 L190F mAChR [8] = target: T5, M4 L190F mAChR (Homo sapiens, UniProt P08173, L190F); assay: BRET TRUPATH GoA activation (G-protein dissociation) assay; type: cell-based; details: T=6min, listed as Ach
T5 construct: expressed in transfected cells; host or cells: CHO FlpIn
T5 sequence (P08173 1-479 L190F): T1 sequence (P08173 1-479) with L190F
Protocol: (§1) Cells were seeded at 20,000 cells per well into 96-well flat-bottom white culture plates and grown for 4 h. Plasmid DNA (20 ng per well of Gα, Gβ and Gγ at a 1:1:1 ratio) and linear polyethylenimine were added to the cells in a 1:6 ratio. To allow for protein expression, cells were then incubated (37 °C, 5% CO2) for 48 h before the measurement of agonist activity. […] The initial 4 min of measurement was considered baseline counts before ligand or vehicle addition, with BRET readings every 2 min for a further 8 min following drug or vehicle addition.
(§2) Concentration–response curves were fitted to a three-parameter logistic equation to derive ligand potency (pEC50) estimates.
(§3) Data was analyzed using the operational model of agonism to quantify the efficacy (Logτ) of each agonist in each cell line, and subsequently corrected for receptor expression level differences between cell lines (Logτc), using the M2 WT as reference. […] Source data

M2 WT mAChR = target: T6, M2 WT mAChR (Homo sapiens, UniProt P08172); assay: as above; type: cell-based; details: M2 wt, T=6min, individual experiments, listed as Ach
T6 construct: expressed in transfected cells; host or cells: CHO FlpIn
T6 sequence (P08172 1-466): T3 sequence (P08172 1-466)
Protocol: as §1, §2, §3

M4 WT mAChR = target: T7, M4 WT mAChR (Homo sapiens, UniProt P08173); assay: as above; type: cell-based; details: T=6min, listed as Ach
T7 construct: expressed in transfected cells; host or cells: CHO FlpIn
T7 sequence (P08173 1-479): T1 sequence (P08173 1-479)
Protocol: as §1, §2, §3

M4 L190F mAChR [9] = target: T5, M4 L190F mAChR; assay: pERK1/pERK2 signaling assay (AlphaScreen SureFire), CHO FlpIn cells; type: cell-based
M4 mAChR [10] = target: M4 mAChR (Homo sapiens, UniProt P08173); assay: [3H]NMS competition binding, purified receptor in lipid nanodiscs with Gi1 heterotrimer
M4 mAChR [11] = target: T1, M4 mAChR; assay: pERK1/pERK2 signaling assay (AlphaScreen SureFire), CHO FlpIn cells; type: cell-based; details: Figure 5c, by tail length, best fit value from nonlinear regression on grouped data
M2 mAChR [12] = target: T3, M2 mAChR; assay: as above; type: cell-based; details: Figure 5c, by tail length, best fit value from nonlinear regression on grouped data
[13] = Receptor : G protein Molar Ratio 1:0
[14] = Log[Ligand] (M) -4, individual experiments
[15] = Log[Ligand] (M) -9, individual experiments
[16] = Log[Ligand] (M) -10, individual experiments
[17] = Log[Ligand] (M) -12, individual experiments

Structure (SMILES): CCCOc1nsnc1C1=CCCN(C)C1 [3-carbon tail analog of xanomeline]
Ki (M4 mAChR [1]): 37.2 nM
Ki (M3 mAChR [2]): 34.7 nM
Ki (M2 mAChR [3]): 22.9 nM
Ki (M5 mAChR [4]): 49 nM
Ki (M1 mAChR): 27.5 nM

Structure (SMILES): CC(=O)OCC[N+](C)(C)C [Acetylcholine, acetylcholine]
Emax pERK1/2 (M5 mAChR [5]): 90 ± 4 % FBS stimulation
Emax pERK1/2 (M3 mAChR [6]): 98 ± 5 % FBS stimulation
Fraction of receptors in a G protein-dependent high-affinity state (M2 mAChR [7]; [13]): 0.13 ± 0.10
Fraction of receptors in a G protein-dependent high-affinity state (M2 mAChR [7]; Receptor : G protein Molar Ratio 1:50): 0.33 ± 0.10
Fraction of receptors in a G protein-dependent high-affinity state (M2 mAChR [7]; Receptor : G protein Molar Ratio 1:1000): 0.57 ± 0.11
Fraction of receptors in a G protein-dependent high-affinity state (M2 mAChR [7]; Receptor : G protein Molar Ratio 1:2000): 0.89 ± 0.12
GoA activation response (M4 L190F mAChR [8]; [14]): 106.304 % Emax ACh and 103.075 % Emax ACh and 107.769 % Emax ACh and 104.574 % Emax ACh and 105.838 % Emax ACh
GoA activation response (M4 L190F mAChR [8]; Log[Ligand] (M) -5, individual experiments): 99.5547 % Emax ACh and 105.081 % Emax ACh and 94.0499 % Emax ACh and 100.086 % Emax ACh and 98.7018 % Emax ACh
GoA activation response (M4 L190F mAChR [8]; Log[Ligand] (M) -6, individual experiments): 84.6502 % Emax ACh and 86.1198 % Emax ACh and 94.9784 % Emax ACh and 91.5878 % Emax ACh and 95.0975 % Emax ACh
GoA activation response (M4 L190F mAChR [8]; Log[Ligand] (M) -7, individual experiments): 59.4174 % Emax ACh and 69.5753 % Emax ACh and 70.634 % Emax ACh and 76.3729 % Emax ACh and 78.8634 % Emax ACh
GoA activation response (M4 L190F mAChR [8]; Log[Ligand] (M) -8, individual experiments): 12.4418 % Emax ACh and 20.3625 % Emax ACh and 19.5412 % Emax ACh and 25.1119 % Emax ACh and 33.5842 % Emax ACh
GoA activation response (M4 L190F mAChR [8]; [15]): 1.269 % Emax ACh and 1.901 % Emax ACh and 28.8031 % Emax ACh and 3.9293 % Emax ACh and 7.995 % Emax ACh
GoA activation response (M4 L190F mAChR [8]; [16]): -3.41 % Emax ACh and 9.605 % Emax ACh and 0.2419 % Emax ACh and -0.9 % Emax ACh and 0.4231 % Emax ACh
GoA activation response (M4 L190F mAChR [8]; [17]): 2.811 % Emax ACh and -10.3446 % Emax ACh and -23.8686 % Emax ACh and 0.009116 % Emax ACh and -3.752 % Emax ACh
GoA activation response (M2 WT mAChR; Log[Ligand] (M) -4): 103.24 % Emax ACh and 95.841 % Emax ACh and 98.7568 % Emax ACh and 99.8054 % Emax ACh and 99.3813 % Emax ACh
GoA activation response (M2 WT mAChR; Log[Ligand] (M) -8): 9.766 % Emax ACh
GoA activation response (M2 WT mAChR; Log[Ligand] (M) -9): 1.63 % Emax ACh and -3.189 % Emax ACh and -6.851 % Emax ACh and 0.4007 % Emax ACh and 0.416 % Emax ACh
GoA activation response (M2 WT mAChR; Log[Ligand] (M) -10): -3.058 % Emax ACh and 8.597 % Emax ACh and 0.3009 % Emax ACh and 1.683 % Emax ACh and 4.386 % Emax ACh
GoA activation response (M2 WT mAChR; Log[Ligand] (M) -12): 6.399 % Emax ACh and 0.8864 % Emax ACh and 8.076 % Emax ACh and 1.671 % Emax ACh and -0.9147 % Emax ACh
GoA activation response (M4 WT mAChR; [14]): 104.45 % Emax ACh and 102.662 % Emax ACh and 101.586 % Emax ACh and 101.003 % Emax ACh and 104.541 % Emax ACh
GoA activation response (M4 WT mAChR; [15]): 1.1727 % Emax ACh and 5.239 % Emax ACh and 5.623 % Emax ACh and -1.171 % Emax ACh and 2.894 % Emax ACh
GoA activation response (M4 WT mAChR; [16]): 3.695 % Emax ACh and 0.8905 % Emax ACh and -7.035 % Emax ACh and 0.4855 % Emax ACh and -3.187 % Emax ACh
GoA activation response (M4 WT mAChR; [17]): -21.8016 % Emax ACh and 1.058 % Emax ACh and -6.101 % Emax ACh and 1.717 % Emax ACh and -0.3266 % Emax ACh
Emax pERK1/2 (M4 L190F mAChR [9]): 94 ± 8 % FBS stimulation
Fraction of receptors in a G protein-dependent high-affinity state (M4 mAChR [10]; [13]): 0.00 ± 0.04
Fraction of receptors in a G protein-dependent high-affinity state (M4 mAChR [10]; Receptor : G protein Molar Ratio 1:125): 0.30 ± 0.04
Fraction of receptors in a G protein-dependent high-affinity state (M4 mAChR [10]; Receptor : G protein Molar Ratio 1:500): 0.71 ± 0.03

Fit parameter (M4 mAChR [11]): 0.4707
Fit parameter (M2 mAChR [12]): 0.5922
Structure (SMILES): CCCCOc1nsnc1C1=CCCN(C)C1 [C4]

Fit parameter (M4 mAChR [11]): 0.4599
Fit parameter (M2 mAChR [12]): 0.2865
Structure (SMILES): CCCCCOc1nsnc1C1=CCCN(C)C1 [C5]
